Experimental data as given in ChEMBL document CHEMBL4831518, “Structure-aided optimization of non-nucleoside M. tuberculosis thymidylate kinase inhibitors” (Eur J Med Chem, 2021).

How the values were obtained:
Thymidylate kinase [1] = target: T1, Thymidylate kinase (Mycobacterium tuberculosis, UniProt P9WKE1); test: Inhibition of Mycobacterium tuberculosis H37Rv TMPK expressed in Escherichia coli by coupled enzyme based spectrophotometric analysis
T1 sequence (P9WKE1 whole entry): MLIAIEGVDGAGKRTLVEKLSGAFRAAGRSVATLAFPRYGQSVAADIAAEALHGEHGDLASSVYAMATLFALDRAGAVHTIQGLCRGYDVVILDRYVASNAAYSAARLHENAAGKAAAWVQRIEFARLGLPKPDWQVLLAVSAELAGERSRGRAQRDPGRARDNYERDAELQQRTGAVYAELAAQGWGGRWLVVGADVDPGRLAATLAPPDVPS

[2] = tested on: Mycobacterium tuberculosis; test: Antimycobacterial activity against Mycobacterium tuberculosis H37Rv ATCC 27294 assessed as inhibition of bacterial growth in presence of glucose by broth microdilution method; assay type: functional
MRC5 = test: Cytotoxicity against human MRC-5 cells assessed as reduction in cell growth measured after 3 days by resazurin dye based fluorometric analysis; settings: MRC5, 72 h
[3] = tested on: Mycobacterium tuberculosis; test: Antibacterial activity againstMycobacterium tuberculosis H37Rv assessed as inhibition of bacterial growth in presence of efflux pump inhibitor PAbetaN and glucose […] by microdilution assay; assay type: functional
[4] = tested on: Mycobacterium tuberculosis; test: Antibacterial activity against Mycobacterium tuberculosis H37Rv assessed as inhibition of bacterial growth in presence of efflux pump inhibitor verapamil and glucose […] by microdilution assay; assay type: functional
Thymidylate kinase [5] = target: T2, Thymidylate kinase (Homo sapiens, UniProt P23919); test: Inhibition of human TMPK at 40 uM
T2 sequence (P23919 whole entry): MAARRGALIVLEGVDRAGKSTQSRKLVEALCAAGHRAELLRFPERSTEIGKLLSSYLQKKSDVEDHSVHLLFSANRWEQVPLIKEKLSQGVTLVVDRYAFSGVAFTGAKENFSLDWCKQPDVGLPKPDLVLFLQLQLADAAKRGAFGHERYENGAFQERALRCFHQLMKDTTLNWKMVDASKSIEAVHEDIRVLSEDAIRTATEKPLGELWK

Thymidylate kinase [6] = target: T2, Thymidylate kinase; test: Inhibition of human TMPK at 31 uM
[7] = Mycobacterium tuberculosis, H37Rv ATCC 27294, read-out: MIC
[8] = Mycobacterium tuberculosis, H37Rv, read-out: MIC

Row | Compound | IC50 (Thymidylate kinase [1]) [µM] | MIC [2, 7] [µM] | IC50 (MRC5) [µM] | also measured
1 | Cc1cn(C2CCN(Cc3cccc(Oc4ccccc4)c3)CC2)c(=O)[nH]c1=O | 6.1 | – | – | –
2 | Cc1cn(C2CCN(Cc3cccc(Oc4cccc(F)c4)c3)CC2)c(=O)[nH]c1=O | 2.9 | 25 | > 64 | –
3 | Cc1cn(C2CCN(Cc3ccnc(Oc4ccccc4)c3)CC2)c(=O)[nH]c1=O | 10.2 | > 50 | > 64 | –
4 | Cc1cn(C2CCN(Cc3cccc(Oc4cccc(C(F)(F)F)c4)c3)CC2)c(=O)[nH]c1=O | 0.6 | 19 | 12.4 | –
5 | COc1cccc(Oc2cccc(CN3CCC(n4cc(C)c(=O)[nH]c4=O)CC3)c2)c1 | 1.2 | 25 | 25.3 | –
6 | Cc1cn(C2CCN(Cc3cccc(OC4CCCC4)c3)CC2)c(=O)[nH]c1=O | 32 | > 50 | 30.3 | –
7 | COc1ccc(Oc2cccc(CN3CCC(n4cc(C)c(=O)[nH]c4=O)CC3)c2)cc1 | 10.5 | – | 28 | MIC [2]: 31.25 µM; MIC [3]: 15.6 µg/mL; MIC [4, 8]: 15.6 µg/mL
8 | Cc1cn(C2CCN(Cc3cccc(Oc4cccnc4)c3)CC2)c(=O)[nH]c1=O | 27 | > 50 | > 64 | –
9 | Cc1cn(C2CCN(Cc3cccc(Oc4ccc(Cl)c(C(F)(F)F)c4)c3)CC2)c(=O)[nH]c1=O | 1.1 | 25 | 5.28 | inhibition (INH) (Thymidylate kinase [5]): Not Active
10 | Cc1cn(C2CCN(Cc3cccc(Oc4ccc(Cl)cc4)c3)CC2)c(=O)[nH]c1=O | 6.9 | 12.5 | 25.1 | –
11 | Cc1cn(C2CCN(Cc3cccc(Oc4cccc(Cl)c4)c3)CC2)c(=O)[nH]c1=O | 0.89 | 12.5 | 21 | –
12 | Cc1cn(C2CCN(Cc3cccc(Oc4cc(F)cc(F)c4)c3)CC2)c(=O)[nH]c1=O | 2.8 | > 50 | > 64 | –
13 | Cc1cn(C2CCN(Cc3cccc(Oc4ccncc4)c3)CC2)c(=O)[nH]c1=O | 20 | – | – | –
14 | Cc1cn(C2CCN(Cc3cc(Oc4ccccc4)ccn3)CC2)c(=O)[nH]c1=O | 8.7 | > 50 | > 64 | –
15 | Cc1cn(C2CCN(Cc3cccc(Oc4cc(C(F)(F)F)cc(C(F)(F)F)c4)c3)CC2)c(=O)[nH]c1=O | 0.14 | > 50 | – | –
16 | Cc1cn(C2CCN(Cc3cccc(Oc4cccc(Cl)c4)n3)CC2)c(=O)[nH]c1=O | 0.45 | 31 | > 64 | inhibition (INH) (Thymidylate kinase [5]): Not Active
17 | Cc1cn(C2CCN(Cc3cccc(Oc4ccc(Cl)c(Cl)c4)c3)CC2)c(=O)[nH]c1=O | 1.1 | 12.5 | 6.1 | inhibition (INH) (Thymidylate kinase [5]): Not Active
18 | Cc1ccc(Oc2cccc(CN3CCC(n4cc(C)c(=O)[nH]c4=O)CC3)c2)cc1 | 12 | 31.2 | > 64 | MIC [3]: 15.6 µg/mL; MIC [4, 8]: 15.6 µg/mL

Row | Compound | IC50 (Thymidylate kinase [1]) [µM] | MIC [2, 7] [µM] | IC50 (MRC5) [µM] | also measured
19 | Cc1cn(C2CCN(Cc3cccc(Oc4ccc(F)c(F)c4)c3)CC2)c(=O)[nH]c1=O | 2.6 | 19 | > 64 | –
20 | Cc1cn(C2CCN(Cc3cccc(OC4CCCCC4)c3)CC2)c(=O)[nH]c1=O | 42 | 37 | 23.6 | –
21 | Cc1cn(C2CCN(Cc3cncc(Oc4cccc(OC(F)(F)F)c4)c3)CC2)c(=O)[nH]c1=O | 0.81 | 37 | > 64 | –
22 | Cc1cn(C2CCN(Cc3cc(Oc4cccc(Cl)c4)ccn3)CC2)c(=O)[nH]c1=O | 2.8 | > 50 | > 64 | –
23 | Cc1cn(C2CCN(Cc3cccc(Oc4cccc(OC(F)(F)F)c4)c3)CC2)c(=O)[nH]c1=O | 0.65 | 25 | 5.26 | inhibition (INH) (Thymidylate kinase [5]): Not Active
24 | Cc1cn(C2CCN(Cc3cncc(Oc4cc(Cl)cc(Cl)c4)c3)CC2)c(=O)[nH]c1=O | 0.22 | 43 | > 64 | inhibition (INH) (Thymidylate kinase [6]): Not Active
25 | Cc1cn(C2CCN(Cc3cccc(Oc4ccccc4)n3)CC2)c(=O)[nH]c1=O | – | > 50 | > 64 | MIC [3]: 62.5 µg/mL; MIC [4, 8]: 125 µg/mL
26 | Cc1cn(C2CCN(Cc3cccc(Oc4ccc(O)cc4)n3)CC2)c(=O)[nH]c1=O | 1.1 | > 50 | – | –
27 | Cc1cn(C2CCN(Cc3ccnc(Oc4cccc(Cl)c4)c3)CC2)c(=O)[nH]c1=O | 3.1 | 37 | > 64 | MIC [3]: 15.6 µg/mL; MIC [4]: 31.25 µg/mL
28 | Cc1cn(C2CCN(Cc3cccc(Oc4ccccc4C(=O)O)n3)CC2)c(=O)[nH]c1=O | 25 | > 50 | – | –
29 | Cc1cn(C2CCN(Cc3cncc(Oc4ccccc4)c3)CC2)c(=O)[nH]c1=O | 6.4 | 37 | > 64 | –
30 | Cc1cn(C2CCN(Cc3cccc(Oc4cccc(O)c4)c3)CC2)c(=O)[nH]c1=O | – | – | > 64 | –
31 | Cc1cn(C2CCN(Cc3cncc(Oc4cccc(Cl)c4)c3)CC2)c(=O)[nH]c1=O | 0.77 | 31 | > 64 | –
32 | Cc1cccc(Oc2cccc(CN3CCC(n4cc(C)c(=O)[nH]c4=O)CC3)c2)c1 | 26 | 37 | > 64 | –
33 | Cc1cn(C2CCN(Cc3cc(Oc4cc(Cl)cc(Cl)c4)ccn3)CC2)c(=O)[nH]c1=O | 0.6 | 34 | – | –
34 | Cc1cn(C2CCN(Cc3cccc(Oc4cc(Cl)cc(Cl)c4)c3)CC2)c(=O)[nH]c1=O | 0.12 | 12.5 | 6.73 | MIC [3]: 7.8 µg/mL; MIC [4, 8]: 7.8 µg/mL; inhibition (INH) (Thymidylate kinase [5]): Not Active
35 | Cc1cn(C2CCN(Cc3cccc(Oc4ccccn4)c3)CC2)c(=O)[nH]c1=O | 41 | > 50 | > 64 | –
